Data from patent US9339032B2, “Heterocyclic compounds as pesticides” (Bayer Intellectual Property GmbH, priority 2010, dated 2016).
Like-named read-outs stand apart in the source and are kept apart here.

How the values were obtained:
[1] = Determination of the log P values (formic acid method) by reverse-phase HPLC; type: physicochemical; conditions: reverse-phase HPLC column (C 18), reverse-phase column (C 18), acidic range (pH 3.4), 55° C.
Experimental: 1) Description of Method for Determination of the log P Values (Formic Acid Method)
The log P values given in the table were determined in accordance with EEC Directive 79/831 Annex V.A8 by HPLC (High Performance Liquid Chromatography) using a reverse-phase column (C 18). Temperature: 55° C.
Eluents for determination in the acidic range (pH 3.4):
Eluent A: acetonitrile+1 ml of formic acid/liter. Eluent B: water+0.9 ml of formic acid/liter.
Gradient: from 10% eluent A/90% eluent B to 95% eluent A/5% eluent B in 4.25 min.
The calibration was effected with unbranched alkan-2-ones (having 3 to 16 carbon atoms) with known log P values (log P values determined on the basis of the retention times by linear interpolation between two successive alkanones). The lambda max values were determined in the maxima of the chromatographic signals using the UV spectra from 200 nm to 400 nm.

[2] = tested on: green peach aphid (Myzus persicae); assay: Myzus test (spray treatment); type: in vivo; conditions: 500 g/ha, spray on Chinese cabbage leaf discs, after 6 days; 100% = all aphids killed
Experimental: Myzus Test (Spray Treatment) Solvent: 78 parts by weight of acetone • • 1.5 parts by weight of dimethylformamide Emulsifier: 0.5 part by weight of alkylaryl polyglycol ether To prepare an appropriate active ingredient preparation, 1 part by weight of active ingredient is mixed with the stated amounts of solvent and emulsifier, and the concentrate is diluted with emulsifier-containing water to the desired concentration. Discs of Chinese cabbage (Brassica pekinensis) infested by all stages of the green peach aphid (Myzus persicae) are sprayed with an active ingredient preparation of the desired concentration. After 6 days, the efficacy in % is determined. 100% means that all of the aphids have been killed; 0% means that none of the aphids have been killed.

Boophilus microplus = Boophilus microplus test (injection); type: in vivo; conditions: 20 μg/animal, injection into the abdomen, after 7 days; 100% = none of the ticks has laid fertile eggs
Experimental: The NMR spectra were • a) determined with a Bruker Avance 400 fitted with a flow probe head (volume 60 μl). The solvent used was CD3CN or d6-DMSO, with tetramethylsilane (0.00 ppm) used as a reference. • b) determined with a Bruker Avance II 600. The solvent used was CD3CN or d6-DMSO, with tetramethylsilane (0.00 ppm) used as a reference. The splitting of the signals was described as follows: s (singlet), d (doublet), t (triplet), q (quartet), quin (quintet), m (multiplet). Boophilus Microplus Test (Injection)
Solvent: dimethyl sulphoxide
To prepare an appropriate active ingredient formulation, 10 mg of active ingredient are mixed with 0.5 ml of solvent and the concentrate is diluted with solvent to the desired concentration. The active ingredient solution is injected into the abdomen (Boophilus microplus), and the animals are transferred into dishes and stored in a climate-controlled room. The activity is assessed by laying of fertile eggs.
After 7 days, the efficacy in % is determined. 100% means that none of the ticks has laid any fertile eggs.

Structure (SMILES)	chromatographic logP ([1]; table, read-out: logP (HCOOH))	efficacy in % (aphids killed) [2]	further results
CCOC(=O)c1cnn(-c2cccnc2)c1 [Ethyl 1-(pyridin-3-yl)-1H-pyrazole-4-carboxylate]	–	–	chromatographic logP ([1]; read-out: log P (HCOOH)): 1.55
Cc1nc(-c2cccnc2)sc1S(=O)(=O)NCc1ncccn1 [Compound 10]	1.35	–	–
CN(C)S(=O)(=O)NC(=O)c1cnn(-c2cccnc2)c1 [Compound 4, N-(Dimethylsulphamoyl)-1-(pyridin-3-yl)-1H-pyrazole-4-carboxamide]	–	90%	chromatographic logP ([1]; read-out: log P (HCOOH)): 1.03
Cc1nc(-c2cccnc2)sc1C(=O)NS(C)(=O)=O [Compound 12]	0.54	–	–
O=S(=O)(Nc1cnn(-c2cccnc2)c1)C(F)F [Compound 5, 1,1-Difluoro-N-[1-(pyridin-3-yl)-1H-pyrazol-4-yl]methanesulphonamide]	–	–	chromatographic logP ([1]; read-out: log P (HCOOH)): 1.01
COCCNS(=O)(=O)c1sc(-c2cccnc2)nc1C [Compound 14]	1.51	–	–
Cc1nn(-c2cccnc2)cc1C(=O)NS(=O)(=O)c1ccccc1 [Compound 6]	1.71	100%	–
O=C(NS(=O)(=O)C1CC1)c1cnn(-c2cncc(F)c2)c1 [Compound 8]	1.28	90%	–
O=C(NS(=O)(=O)C1CC1)c1cnn(-c2cccnc2)c1 [Compound 11]	0.83	–	–
Cc1nc(-c2cccnc2)sc1NC(=O)Cc1ncccn1 [Compound 2, N-[4-Methyl-2-(pyridin-3-yl)-1,3-thiazol-5-yl]-2-(pyrimidin-2-yl)acetamide]	–	100%	chromatographic logP ([1]; read-out: log P (HCOOH)): 0.74
CN(C)S(=O)(=O)NC(=O)c1cnn(-c2cncc(F)c2)c1 [Compound 7]	1.42	100%	–
O=C(NS(=O)(=O)c1ccccc1)c1cnn(-c2cccnc2)c1 [Compound 9]	1.39	–	–
Cc1nc(-c2cccnc2)sc1NC(=O)CC(F)(F)F [Compound 1, 3,3,3-Trifluoro-N-[4-methyl-2-(pyridin-3-yl)-1,3-thiazol-5-yl]propanamide]	–	80%	chromatographic logP ([1]; read-out: log P (HCOOH)): 1.47; efficacy in % (laying of fertile eggs) (Boophilus microplus): 100%
Cc1nc(-c2cccnc2)sc1S(=O)(=O)N(C)C [Compound 3]	–	100%	chromatographic logP ([1]; read-out: log P (HCOOH)): 1.86
Cc1nn(-c2cccnc2)cc1C(=O)NS(C)(=O)=O [Compound 13]	0.81	–	–

Second part, led by results:

chromatographic logP ([1]; table, read-out: logP (HCOOH))	Structure (SMILES)	efficacy in % (aphids killed) [2]	further results
0.9	CS(=O)(=O)NC(=O)c1cnn(-c2cncc(F)c2)c1 [Compound 18]	–	–
0.69	CCS(=O)(=O)NC(=O)c1cnn(-c2cccnc2)c1 [Compound 19]	–	–
1.24	CCS(=O)(=O)NC(=O)c1cnn(-c2cncc(F)c2)c1 [Compound 21]	–	–
1.08	Cc1nc(-c2cncc(F)c2)sc1C(=O)NS(C)(=O)=O [Compound 20]	–	–
1.81	O=C(NS(=O)(=O)c1ccccc1)c1cnn(-c2cncc(F)c2)c1 [Compound 17]	–	–
0.67	O=C(NS(=O)(=O)C(F)(F)F)c1cnn(-c2cccnc2)c1 [Compound 15]	–	–
0.41	CS(=O)(=O)NC(=O)c1cnn(-c2cccnc2)c1 [Compound 16]	–	–
